# Data: PubChem BioAssay (NCI)
#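 Dose response: 5 concentrations. Exposure: 48 h. Format: 96-well plates. Endpoint: linear interpolation; highest concentration if not reached. The concentration for full growth arrest is given as TGI.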
# Assays:
# Assay in all cases: growth of human tumour cells (NCI), 48 h
# [1] = test system: A498 renal
# [2] = test system: HCT-15 colon
# [3] = test system: HL-60(TB) leukemia
# [4] = test system: HOP-62 NSCLC
# [5] = test system: M14 melanoma
# [6] = test system: MALME-3M melanoma
# [7] = test system: MCF7 breast
# [8] = test system: MDA-MB-435
# [9] = test system: MDA-N
# [10] = test system: MOLT-4 leukemia
# [11] = test system: NCI-H460 lung
# [12] = test system: RPMI-8226 leukemia
# [13] = test system: RXF 393 renal
# [14] = test system: SF-295 CNS
# [15] = test system: SK-MEL-2 melanoma
# [16] = test system: SW-620 colon
# [17] = test system: T-47D breast
# [18] = test system: UACC-62 melanoma
# [19] = test system: UO-31 renal
# [20] = test system: SR leukemia
SMILES,TGI [1],TGI [2],TGI [3],TGI [4],TGI [5],TGI [6],TGI [7],TGI [8],TGI [9],TGI [10],TGI [11],TGI [12],TGI [13],TGI [14],TGI [15],TGI [16],TGI [17],TGI [18],TGI [19],TGI [20]
CCC(C)C(N)C(=O)N/N=C\c1c2c(nc3ccccc13)-c1cc3c(c(=O)n1C2)COC(=O)[C@]3(O)CC (some centres undefined),1.43 µM,> 100 µM,0.68 µM,1.15 µM,1.6 µM,19.7 µM,1.61 µM,> 81 µM,> 100 µM,1.86 µM,1.5 µM,11.4 µM,0.218 µM,1.37 µM,6.59 µM,> 43.7 µM,0.188 µM,0.106 µM,1.4 µM,
N#Cc1c(=O)c2ccccc2n2ccccc12,> 100 µM,> 100 µM,> 100 µM,,,> 100 µM,,> 100 µM,> 100 µM,,> 100 µM,> 100 µM,,,90.8 µM,> 100 µM,> 100 µM,> 100 µM,> 100 µM,> 100 µM
O=Cc1ccc(OC[C@H]2COC(=O)N2)cc1,,> 100 µM,> 100 µM,> 100 µM,> 100 µM,> 100 µM,> 100 µM,> 100 µM,,> 100 µM,> 100 µM,,> 100 µM,> 100 µM,> 100 µM,> 100 µM,> 100 µM,> 100 µM,> 100 µM,> 100 µM
CC1(C)OC(=S)N(c2ccccc2)C12C=Cc1cc3ccccc3nc1S2 (centres undefined),,> 100 µM,> 100 µM,> 100 µM,> 100 µM,> 100 µM,,,,> 100 µM,> 100 µM,> 100 µM,> 100 µM,,> 100 µM,> 100 µM,,> 100 µM,> 100 µM,80.1 µM
O=C(c1ccccc1)N1C(=O)N(c2ccccc2)C(=Nc2ccccc2)C1=Nc1ccccc1,> 100 µM,> 100 µM,> 100 µM,> 100 µM,,> 100 µM,,> 100 µM,> 100 µM,> 100 µM,> 100 µM,> 100 µM,> 100 µM,> 100 µM,> 100 µM,> 100 µM,> 100 µM,31.8 µM,> 100 µM,> 100 µM
O=c1cc(-c2ccccc2)[nH]c2cc(F)cc(F)c12,,> 100 µM,> 100 µM,> 100 µM,> 100 µM,79.4 µM,,,,> 100 µM,> 100 µM,> 100 µM,81.7 µM,> 100 µM,84.4 µM,> 100 µM,,63.9 µM,> 100 µM,> 100 µM
Cn1c(=Nc2ccc(Cl)cc2)sc2ccccc21,> 100 µM,65.7 µM,> 100 µM,> 100 µM,,> 100 µM,,> 100 µM,,> 100 µM,> 100 µM,> 100 µM,> 100 µM,> 100 µM,> 100 µM,> 100 µM,> 100 µM,> 100 µM,> 100 µM,> 100 µM
